Results published in ChEMBL document CHEMBL3039007, “Structure-based identification of OATP1B1/3 inhibitors” (Mol Pharmacol, 2013).

Tests used:
[1] = biological target: T1, Solute carrier organic anion transporter family member 1B3 (Homo sapiens, UniProt Q9NPD5); details: chinese hamster, cho, 10 µM
T1 sequence (Q9NPD5 whole entry): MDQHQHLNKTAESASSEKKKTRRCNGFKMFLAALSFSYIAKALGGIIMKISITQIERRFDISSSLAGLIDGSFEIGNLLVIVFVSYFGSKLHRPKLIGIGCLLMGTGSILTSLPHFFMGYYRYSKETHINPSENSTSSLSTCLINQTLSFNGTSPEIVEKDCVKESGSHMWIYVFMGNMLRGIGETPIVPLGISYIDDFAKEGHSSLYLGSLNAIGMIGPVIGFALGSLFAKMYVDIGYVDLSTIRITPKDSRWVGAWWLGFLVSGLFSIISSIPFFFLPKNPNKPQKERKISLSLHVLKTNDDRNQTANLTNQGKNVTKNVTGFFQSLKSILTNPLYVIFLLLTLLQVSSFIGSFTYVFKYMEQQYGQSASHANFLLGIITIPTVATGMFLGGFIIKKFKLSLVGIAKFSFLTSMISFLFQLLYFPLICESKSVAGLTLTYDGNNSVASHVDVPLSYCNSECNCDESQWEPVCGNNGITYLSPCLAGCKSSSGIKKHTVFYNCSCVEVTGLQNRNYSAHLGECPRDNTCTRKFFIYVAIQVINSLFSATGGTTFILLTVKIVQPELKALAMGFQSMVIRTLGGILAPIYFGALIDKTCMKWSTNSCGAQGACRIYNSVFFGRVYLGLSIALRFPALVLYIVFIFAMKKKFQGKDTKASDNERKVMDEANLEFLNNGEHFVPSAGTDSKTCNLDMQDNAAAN

[2] = biological target: T2, Solute carrier organic anion transporter family member 1B1 (Homo sapiens, UniProt Q9Y6L6); details: chinese hamster, cho, 10 µM
T2 sequence (Q9Y6L6 whole entry): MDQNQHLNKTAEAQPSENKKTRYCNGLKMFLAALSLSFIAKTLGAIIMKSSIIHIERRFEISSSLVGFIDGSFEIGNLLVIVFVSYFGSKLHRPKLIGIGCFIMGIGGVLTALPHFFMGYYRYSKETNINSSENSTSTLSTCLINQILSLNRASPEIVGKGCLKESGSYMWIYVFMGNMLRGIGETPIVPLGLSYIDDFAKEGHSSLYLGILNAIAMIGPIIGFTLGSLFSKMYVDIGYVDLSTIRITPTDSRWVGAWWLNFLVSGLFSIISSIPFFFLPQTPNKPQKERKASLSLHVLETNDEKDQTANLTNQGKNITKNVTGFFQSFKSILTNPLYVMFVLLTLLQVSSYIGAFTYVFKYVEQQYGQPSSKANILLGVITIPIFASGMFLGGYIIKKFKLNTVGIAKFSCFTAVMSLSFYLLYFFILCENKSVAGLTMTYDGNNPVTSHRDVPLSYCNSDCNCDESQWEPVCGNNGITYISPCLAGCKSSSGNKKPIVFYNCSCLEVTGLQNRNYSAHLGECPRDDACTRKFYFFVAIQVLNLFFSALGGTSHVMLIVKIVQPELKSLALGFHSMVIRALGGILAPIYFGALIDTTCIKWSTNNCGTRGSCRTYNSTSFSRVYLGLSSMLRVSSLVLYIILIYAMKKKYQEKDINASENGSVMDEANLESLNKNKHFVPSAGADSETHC

Row | SMILES | residual activity [1] [%] | residual activity [2] [%]
1 | COc1ccc(C(=O)/C=C/c2ccccc2)cc1 [4'-METHOXYCHALCONE] | 93.51 | 100.4
2 | C=CC(C1=CC(=O)C(OC)=CC1=O)c1ccc(OC)cc1 (stereo unspecified) [4,4'-DIMETHOXYDALBERGIONE] | 101.4 | 116.4
3 | COc1ccc(-c2cc(=O)c3ccc(OC)cc3o2)cc1 [4,7-DIMETHOXYFLAVONE] | 87.07 | 91.89
4 | CC(=O)Oc1ccc(O)cc1 [4-ACETOXYPHENOL] | 116.4 | 136.7
5 | NCC(CC(=O)O)c1ccc(Cl)s1 (stereo unspecified) [4-AMINO-3- (5-CHLOROTHIEN-2-YL)BUTANOIC ACID] | 99.7 | 116.9
6 | Cl.NCCc1ccc(S(=O)(=O)F)cc1 [4-AMINOETHYLBENZENESULFONYL FLUORIDE HYDROCHLORIDE] | 100 | 71.73
7 | C=CC(C1=CC(=O)C(OC)=CC1=O)c1ccccc1 (stereo unspecified) [4-METHOXYDALBERGIONE] | 139.3 | 77.75
8 | Cc1cc(=O)oc2c(O)c(O)ccc12 [4-METHYLDAPHNETIN] | 78.2 | 61.23
9 | Cc1cc(=O)oc2cc(O)c(O)cc12 [4-METHYLESCULETIN] | 110.1 | 121.7
10 | CCCCCCCCCc1ccc(O)cc1 [4-NONYLPHENOL] | 184.2 | 140.8
11 | Cc1cc(=O)oc2cc(O)cc(O)c12 [5,7-DIHYDROXY-4-METHYLCOUMARIN] | 106.7 | 79.94
12 | O=c1c(-c2ccccc2)coc2cc(O)cc(O)c12 [5,7-DIHYDROXYISOFLAVONE] | 75.57 | 54.1
13 | COc1cc(OC)c2c(=O)c(-c3ccccc3)coc2c1 [5,7-DIMETHOXYISOFLAVONE] | 104.7 | 99.46
14 | Cl.NCCCCC(=O)O [5-AMINOPENTANOIC ACID HYDROCHLORIDE] | 62.53 | 59.53
15 | O=C(O)c1cc2cc(Cl)ccc2[nH]1 [5-CHLOROINDOLE-2-CARBOXYLIC ACID] | 91.36 | 75.02
16 | O=C(O)c1cc2cc(F)ccc2[nH]1 [5-FLUOROINDOLE-2-CARBOXYLIC ACID] | 103.9 | 108.9
17 | COc1cc(O)c2c(=O)c(-c3ccccc3)coc2c1 [5-HYDROXY-7-METHOXYISOFLAVONE] | 104.3 | 99.72
18 | C=C1CCC2C(CC2(C)C)C(=C)CC/C1=N/O (stereo unspecified) [5-HYDROXYIMINOISOCARYOPHYLLENE] | 80.99 | 84.7
19 | COc1ccc2[nH]cc(CCN)c2c1 [5-METHOXYTRYPTAMINE] | 73.24 | 59.83
20 | O=C(O)c1cc([N+](=O)[O-])ccc1NCCCc1ccccc1 [5-NITRO-2-PHENYLPROPYLAMINOBENZOIC ACID [NPPB]] | 33.43 | 40.14
21 | COc1ccc2c(c1)[C@@]1(C)CCC(=O)C[C@@H]1CC2 [5alpha-12-METHOXY-4,4-BISNOR-8,11,13-PODOCARPATRIEN-3-ONE] | 89.3 | 131.2
22 | CC(C)CCC[C@@H](C)[C@H]1CC[C@H]2[C@@H]3CC(=O)[C@H]4C[C@@H](O)CC[C@]4(C)[C@H]3CC[C@]12C [5alpha-CHOLESTAN-3beta-OL-6-ONE] | 105.8 | 101.9

Row | SMILES | residual activity [1] [%] | residual activity [2] [%]
23 | COc1cccc(-c2cc(=O)c3cc(OC)ccc3o2)c1 [6,3'-DIMETHOXYFLAVONE] | 120.4 | 131.7
24 | COc1ccc(-c2cc(=O)c3cc(OC)ccc3o2)cc1 [6,4'-DIMETHOXYFLAVONE] | 110.4 | 34.44
25 | O=C(O)c1nc2cc(Cl)c(Cl)cc2nc1O [6,7-DICHLORO-3-HYDROXY-2-QUINOXALINECARBOXYLIC ACID] | 108 | 119
26 | NC(=O)c1ccc(N)nc1 [6-AMINONICOTINAMIDE] | 108.6 | 103.2
27 | C=C1C2CC[C@@]3(C)[C@H](c4ccoc4)OC(=O)C[C@]13O[C@H]1CC(=O)C(C)(C)[C@H](C(O)C(=O)OC)[C@@]21C (stereo partly specified) [6-HYDROXYANGOLENSIC ACID METHYL ESTER] | 61.1 | 23.65
28 | COc1ccc2c(=O)cc(-c3ccccc3OC)oc2c1 [7,2'-DIMETHOXYFLAVONE] | 110.5 | 95.82
29 | COc1cccc(-c2cc(=O)c3ccc(OC)cc3o2)c1 [7,3'-DIMETHOXYFLAVONE] | 101.6 | 98.64
30 | O=c1cc(-c2ccccc2)oc2c(O)c(O)ccc12 [7,8-DIHYDROXYFLAVONE] | 140.6 | 107.3
31 | Cn1c(=O)c2c(ncn2CCCl)n(C)c1=O [7-CHLOROETHYLTHEOPHYLLINE] | 97.15 | 90.03
32 | O=C(O)c1cc(O)c2ccc(Cl)cc2n1 [7-CHLOROKYNURENIC ACID] | 89.9 | 93.09
33 | O=C(O)c1cc(O)c(=O)c2c(O)c(O)ccc2c1 [7-DESHYDROXYPYROGALLIN-4-CARBOXYLIC ACID] | 69.89 | 100.2
34 | COc1ccc2c(=O)ccoc2c1 [7-METHOXYCHROMONE] | 95.23 | 91.79
35 | O=[N+]([O-])c1cccc2cn[nH]c12 [7-NITROINDAZOLE] | 106.1 | 147.5
36 | COC(=O)[C@]1(C)CCC[C@]2(C)c3ccc(C(C)C)cc3C(=O)CC12 (stereo partly specified) [7-OXOCALLITRISIC ACID, METHYL ESTER] | 105.6 | 127.8
37 | CC(C)CCC[C@@H](C)[C@H]1CC[C@H]2[C@@H]3C(=O)C=C4C[C@@H](O)CC[C@]4(C)[C@H]3CC[C@]12C [7-OXOCHOLESTEROL] | 90.78 | 96.87
38 | CC(=O)O[C@H]1CC[C@@]2(C)C(=CC(=O)[C@H]3[C@@H]4CC[C@H]([C@H](C)CCCC(C)C)[C@@]4(C)CC[C@@H]32)C1 [7-OXOCHOLESTERYL ACETATE] | 99.45 | 97.51
39 | COc1ccccc1-c1cc(=O)c2cccc(OC)c2o1 [8,2'-DIMETHOXYFLAVONE] | 108 | 107.3
40 | Cn1c(=O)c2[nH]c(C3CCCC3)nc2n(C)c1=O [8-CYCLOPENTYLTHEOPHYLLINE] | 94.04 | 111.5
41 | CC(=O)/C=C\[C@@H]1[C@@]2(C)CCCC(C)(C)C2CC[C@@]1(C)O (stereo partly specified) [8-HYDROXY-15,16-BISNOR-11-LABDEN-13-ONE] | 84.33 | 71.14
42 | CC1(C)C(=O)[C@H]2C[C@]3(O)C4=CC(=O)O[C@@H](c5ccoc5)[C@@]4(C)CCC3[C@](C)(C2=O)[C@H]1CC(=O)O (stereo partly specified) [8-HYDROXYCARAPINIC ACID] | 78.38 | 73.89
43 | COc1ccc([C@H]2Oc3c(I)c(OC)cc(OC)c3C[C@@H]2O)cc1OC [8-IODOCATECHIN TETRAMETHYL ETHER] | 100.1 | 194.8
